# Source: patent publication US8551937B2, “Peptide having an extending action for half-life of object peptide in plasma” (priority 2008, dated 2013)
# Columns and labels:
# [1] = CNP immunoreactivity concentration in plasma, half-life after intravenous administration (Example 9); settings: male, SD, rat, in vivo, 20 nmol/kg
# [2] = CNP immunoreactivity concentration in plasma after administration to rats (competitive RIA), pharmacokinetic parameters (Example 2); format: in vivo, rat; settings: for half-life: read-out: T½
# Method: Pharmacokinetic parameters were calculated from the resulting changes in immunoreactivity concentrations in plasma. At that time, WinNonlin Professional Ver. 4.0.1 (manufactured by Pharsight Corporation, U.S.A.) was used as the analytical software. Method for the calculation of each parameter is mentioned as follows.
# Concentration at time 0 (C0; extrapolated value, ng/mL), area under the curve for concentration in plasma vs. time (AUC; ng.min/mL) and quenching half-life (T½; minute(s)) were calculated as follows. C0 was calculated as a value at time by means of extrapolation from the changes in immunoreactivity concentration in plasma at each blood collection period. AUC was calculated by a trapezoidal method using the immunoreactivity concentrations in plasma at all measuring points (t) and an extrapolated value until the infinitive time was determined. T½ was calculated by means of a least-squares method from the inclination of a straight line connecting several points in a disappearing phase of the immunoreactivity concentration in plasma. In the case of a subcutaneous administration, C0 was not determined but the maximum concentration in plasma (Cmax; ng/mL) and the time reaching the maximum concentration in plasma (Tmax; min) were determined.
# Changes in CNP immunoreactivity concentration in plasma of native CNP-22 and chimeric peptide (chimeric CNP) where a half-life-extension peptide was added to CNP were investigated.
# The experiment was conducted in the same manner as in Example 1 that rats where polyethylene tube was previously inserted into thigh artery were used under an anesthetizing condition with Nembutal and male SD strain rats of 7 weeks age (purchased from Nippon Charles River) were used where one group comprised 3 rats. […] At that time, a rabbit polyclonal antibody (#2) recognizing a ring part of native CNP-22 was used as an antibody and ^125I-[Tyr^0] CNP was used as a labeling compound. Pharmacokinetic analysis was carried out by the same method as in Example 1.
# [3] = Comparison of half-life in plasma of native CNP-22, native CNP-53 and chimeric CNP (Example 12); settings: male, SD, rat, in vivo, iv, 20 nmol/kg, T½ Mean Value, intravenous, male rats, N = 3
# Method: Changes in CNP immunoreactivity concentration in plasma when the native CNP-22 shown by SEQ ID No: 101 was administered either solely or jointly with neutral endo-peptidase (NEP) inhibitor and compared with changes in CNP immunoreactivity concentration in plasma when native CNP-53 (SEQ ID No: 159) and the chimeric CNP (D) (structure mentioned already) were intravenously administered.
# The experiment was conducted using rats where polyethylene tube (PE-50, manufactured by Clay Adams) was previously inserted into thigh artery under the anesthetized condition with Nembutal. In the group where the native CNP-22 was administered either solely or jointly with an NEP inhibitor, the polyethylene tube (PE-10, manufactured by Clay Adams) was also inserted into the thigh vein. As to a test system, male SD rats (Nippon Charles River) of 7 weeks age were used where one group comprised three rats. As to the NEP inhibitor, DL-Thiorphan (manufactured by Sigma) was used and, during the period from 10 minutes before the initiation of administration of the native CNP-22 until 60 minutes after the initiation of the administration where collection of the blood finished, 5% mannitol (100 μL/min/body) or NEP inhibitor (30 μg/100 μL/min/body) was subjected to a constant-speed intravenous administration for 70 minutes using an Infusion Pump (CFV 2100, manufactured by Nippon Koden K. K.). Native CNP-22, native CNP-53 or chimeric CNP (D) was administered into tail vein in a dose of 20 nmol/kg each and blood over the time from before administration and 60 minutes after administration was collected from a polyethylene tube inserted into the thigh artery. To the collected blood were added EDTA (Dojin Laboratories) and aprotinin (manufactured by Bayer) as a stabilizer and an anti-coagulant, respectively and the plasma was separated by means of centrifugal separation. CNP immunoreactivity concentration in the plasma was measured by a competitive radioimmunoassay (RIA). At that time, a rabbit polyclonal antibody (#2) which specifically recognizes a ring part structure which is the common structure for native CNP-22 and native CNP-53 was used as an antibody while, as a labeling compound, ^125I-[Tyr^0] CNP-22 was used.
# [4] = CNP immunoreactivity concentration in plasma, half-life after intravenous administration (Example 7); settings: male, SD, rat, in vivo, 10 nmol/kg
# Method: The experiment was carried out using rats into which polyethylene tube (PE-50 manufactured by Clay Adams) was previously inserted into thigh artery under an anesthetized condition with Nembutal. As to a test system, male SD strain rats (Nippon Charles River) of 7 weeks age were used where one group comprised 3 rats. Native CNP-22 or chimeric CNP in a dose of 10 nmol/kg was administered into tail vein of the rat and the blood before the administration and until 60 minutes after the administration was collected by a polyethylene tube inserted into the thigh artery. To the collected blood were added EDTA (manufactured by Dojin Laboratories) and aprotinin (manufactured by Bayer) as a stabilizer and an anti-coagulant, respectively and the plasma was separated therefrom by centrifugal separation. CNP immunoreactivity concentration in plasma was measured by a competitive radioimmunoassay (RIA). At that time, a rabbit polyclonal antibody (#2) which specifically recognizes the ring partial structure of the native CNP-22 was used as an antibody and, as a labeled compound, ^125I-[Tyr^0] CNP was used.
# [5] = Antigenicity by indirect ELISA of serum after repeated administration; format: in vivo; settings: 0.25 mg/kg subcutaneous twice daily for 29 days, mouse serum
# Method: In order to investigate whether an antibody to native CNP-22 or chimeric CNP (B) was produced using serum collected from the mice after completion of repeated administration for four weeks in Example 4, antigenicity of each of them was evaluated by means of an indirect ELISA. A peptide solution (100 μL) adjusted to 1.0 ng/μL using 50 mM of […] at pH 8.5 was added to a 96-well plate (manufactured by Nalge Nunc International; Denmark) treated with Maxisoap and subjected to a coating operation overnight at 4° C. A blocking was carried out at room temperature for 1 hour using a 2.0% Block Ace (manufactured by Snow Brand Milk). […] After washing the wells, an anti-mouse IgG HRPAb (manufactured by Zymed Laboratories, U.S.A.) was added thereto. The antigen-antibody reaction was conducted for 1 hour at room temperature, then the wells were washed and a substrate ABTS (manufactured by KPL, U.S.A.) was added thereto.
# [6] = rat, plasma, sc, subcutaneous, 0.1 mg/kg, male rats, N = 3, mean ± SD
# [7] = rat, plasma, intravenous, 0.1 mg/kg, male rats, N = 3, mean ± SD
smiles,measurement,setting,value
CC[C@H](C)[C@@H]1NC(=O)[C@H](CCCNC(=N)N)NC(=O)[C@H](CC(=O)O)NC(=O)[C@H](CC(C)C)NC(=O)[C@H](CCCCN)NC(=O)[C@H](CC(C)C)NC(=O)CNC(=O)[C@H](Cc2ccccc2)NC(=O)[C@@H](NC(=O)CNC(=O)[C@H](CCCCN)NC(=O)[C@H](CO)NC(=O)[C@H](CC(C)C)NC(=O)CN)CSSC[C@@H](C(=O)O)NC(=O)CNC(=O)[C@H](CC(C)C)NC(=O)CNC(=O)[C@H](CO)NC(=O)[C@H](CCSC)NC(=O)[C@H](CO)NC(=O)CNC1=O [Native CNP-22],half-life,[1],1.6 min
same,AUC(0-inf),[2]; [6],0.0177 µg·h/mL
same,Cmax,[2]; [6],0.0556 ± 0.0045 µg/mL
same,Tmax,[2]; [6],5 min
same,half-life,[2]; [6],7.8 ± 0.9 min
same,AUC(0-inf),[2]; [7],0.0256 µg·h/mL
same,C0,"[2]; rat, plasma, intravenous, 0.1 mg/kg, male rats, N = 3, mean ± SD, extrapolated value",1.02 ± 0.273 µg/mL
same,half-life,[2]; [7],2.93 ± 0.23 min
same,CNP immunoreactivity concentration in plasma,"[2]; subcutaneous, after 60 minutes from the administration",almost disappeared
same,half-life,[3]; Joint Use with NEP Inhibitor: no,1.11 min
same,half-life,[3]; Joint Use with NEP Inhibitor: yes (DL-Thiorphan),16.2 min
same,half-life,[4],4.34 min
same,antibody value,[5],no rise
